Legend:
[1] = system: all cells, including cancer cells; experiment: protection from the killing effect of TRAIL by caspase inhibitors; assay type: cell-based; conditions: stated without experimental detail
[2] = system: esophageal cancer cell lines; experiment: active-caspase 3 assay, TRAIL cytotoxicity on esophageal cancer cell lines; assay type: cell-based, human
Method: To assess TRAIL cytotoxicity on esophageal cancer cells, the active-caspase 3 assay was used. […] After 16 hours of the TRAIL treatment, the cells were harvested and the active-caspase 3 assay was performed as described in the Experimental Procedures above. In the case of CHX treatment, the cells were pre-treated with CHX (10 μg/mL final concentration) for 6 hours before the addition of TRAIL.
The protein synthesis inhibitor, cycloheximide (“CHX”), has been widely used with apoptosis-inducing ligands, such as FAS/FASL, TNF-α, or TRAIL, to induce cell death effectively. […] This is because previous observers have reported that over-expression of c-FLIP can interrupt the recruitment of caspase 8 into DISC, thereby preventing down stream activation of the caspase cascade (Wajant et al., J. Biol. Chem. 275:24357-24366 (2000)). It has also been reported that CHX might sensitize the cells to TRAIL by inhibiting a de novo synthesis of c-FLIP, thereby increasing the recruitment of caspase 8 into DISC (Fulda et al., Cancer Res. 60:3947-3956 (2000)), followed by activation of downstream apoptotic signaling cascade.

HCE4 cells = experiment: DISC IP analysis, recruitment of caspase 8 into DISC; assay type: cell-based, human; conditions: CHX-pre-treated vs control
Method: (§1) To perform the DISC analysis, cells were grown, harvested and re-suspended in 2 mL of DMEM (1.5×10^7 cells/mL). TRAIL (500 ng/mL final concentration) and anti-6× His antibody (2.5 μg/mL final concentration) were pre-mixed for 10 minutes on ice, then added to the re-suspended cells. The cells were treated with TRAIL for 20 minutes in a 37° C. water bath with intermittent agitation. TRAIL treatment was stopped by adding 5 mL of ice-cold PBS, followed by immediate centrifugation. […]
(§2) To the cleared lysate, 30 μL of protein A/G plus agarose beads (Santa Cruz) were added and incubated overnight in a cold room with continuous rocking. […] After centrifugation at the same condition, the precipitates were re-suspended in 1× SDS loading buffer and analyzed by 12% SDS-PAGE and western immunostaining.
(§3) In the control used to verify the DISC without TRAIL stimulation, the same amounts of TRAIL and antibody were added to the lysate after the cells were lysed with IP lysis buffer. Equal amounts of total cell lysates were also analyzed as an expression control. […]
(§4) FIGS. 3A and 3B depict an immunostained western blot showing the sensitization of TRAIL-resistant HCE4 cells to TRAIL resulting from CHX pre-treatment. […] Actin levels were measured as a control standard.

TE9 cells = experiment: as above; assay type: cell-based, human; conditions: CHX-pre-treated vs control
Method: as §1, §2, §3, §4

[3] = system: TRAIL-resistant HCE4 cell line; experiment: time course western blot of caspase activation and PARP cleavage; assay type: cell-based, human; conditions: only in CHX-pretreated HCE4 cells; 6 hours CHX pre-incubation
Method: (§5) Western blot analysis was carried out as previously described (Meng et al., Clin. Cancer Res. 4:251-259 (1998)). Blotted membranes were immunostained with anti-DR4 (1:500; Pharmingen), anti-DR5 (1:500; IMGENEX, San Diego, Calif.), anti-DcR1 (1:500; Pharmingen), anti-DcR2 (1:500; Pharmingen), anti-FADD (Clone IF7, 1:2000; Upstate Biotechnology, Lake Placid, N.Y.), anti-caspase 8 (Clone 5F7, 1:1000; Upstate Biotechnology), anti-FLIP (Clone Dave-2, 1:1000; Alexis Biochemicals, San Diego, Calif.), anti-Bid (1:500; Pharmingen), anti-Bax (1:500, Pharmingen), anti Bcl-2 (Bcl-2/100, 1:500; Pharmingen), anti-Bcl-xL (1:500; Pharmingen), anti-caspase 3 (E-8, 1:200; Santa Cruz, Santa Cruz, Calif.), anti-PARP (1:2000; Roche Diagnostics GmbH, Mannheim, Germany), anti-TRAIL (1:500; PeproTech Inc., Rocky Hill, N.J.), or anti-actin (I-19, 1:200; Santa Cruz).
A time course experiment was performed using the TRAIL-resistant HCE4 cell line. After 6 hours of pre-incubation in the presence or absence of CHX, the cells were exposed to TRAIL, then lysates were prepared and harvested at time points every 30 minutes after the addition of TRAIL, up to 4 hrs by adding 1× SDS loading buffer. The timed lysates were subjected to 10 or 12% SDS-PAGE, and then immunoblotted and stained with the indicated antibodies (FIG. 3). […]

[4] = system: TRAIL-resistant HCE4, TE3, and TE5 cells; experiment: active-caspase 3 assay, adriamycin plus TRAIL; assay type: cell-based, human; conditions: HCE4, TE3, TE5; 0.5 μM adriamycin 16 hours, then TRAIL 4 hours; no inhibitor
Method: Cells were treated with TRAIL (50 ng/mL final concentration) and 1 μg/mL of anti-6× His (N-terrninal histidine antibody) for 4 hours or for 16 hours. The caspase inhibitor was used at a final concentration of 20 μM, and was added 2 hours prior to the addition of TRAIL. When the cells were treated with both cycloheximide (CHX) and TRAIL, CHX (10 μg/mL final concentration) was added 6 hours before the addition of TRAIL. In the case of adriamycin, cells were pre-treated with adriamycin (0.5 μM final concentration) for 16 hours before the addition of TRAIL.
(§6) For detecting apoptosis mediated by TRAIL, an active-caspase 3 assay was performed using Cytofix/Cytoperm kit (Pharmingen, San Diego, Calif.), as previously described (Kim et al., Int. J. Oncol. 18:241-247 (2001)). Briefly, using standard techniques, 5×10^5 cells were seeded into a 6 well plate, after which, the cells were treated with TRAIL cross-linked with anti-6× His antibody. […] After washing, the cells were probed with 0.125 μg/μl of Phycoerythrin (PE)-conjugated goat anti-rabbit secondary antibody (Ab) (CALTAG Laboratories, Burlingame, Calif.) for 20 minutes in the dark. The intensity of PE was analyzed by flow cytometry using a Beckman-Coulter Epics Elite analyzer.
Accordingly, adriamycin was tested to determine whether its combination with TRAIL could induce synergistic cell killing in TRAIL-resistant esophageal cancer cells. TRAIL-resistant HCE4, TE3, and TE5 cells were pre-treated with 0.5 μM adriamycin for 16 hours, followed by incubation for 4 hours in the presence of TRAIL. z-LEHD-FMK (20 μM final concentration) was added 2 hours before the addition of TRAIL. An active-caspase 3 assay was used to determine whether apoptosis occurred.
Next, z-LEHD-FMK was tested in the HCE4, TE3 and TE5 cells to determine the protective effect of z-LEHD-FMK, if any, on the synergistic cell death driven by the combination of adriamycin with TRAIL.

HCE4, TE3 and TE5 cells [5] = experiment: mitochondrial transmembrane potential change, DiOC6 flow cytometry; assay type: cell-based, human; conditions: 0.5 μM adriamycin 16 hours; 100 nM DiOC6
Method: To detect any change of Δψm after treating cells with adriamycin, 3,3′-dihexyloxacarbocyanine iodide (DiOC6 (Pan et al., 1997)) were used. Briefly, 5×10^5 cells/well were seeded into a 6 well plate. After treatment with adriamycin, the cells were harvested, washed and re-suspended in complete media containing 100 nM DiOC6 (Pan et al., 1997) followed by 30 minutes incubation in a 37° C. water bath.
In addition to determine the potential mitochondrial membrane (Δψm) change after 16 hours of adriamycin (0.5 μM) pretreatment, the HCE4, TE3 and TE5 cells were incubated in the presence of 100 nM DiOC6 (Pan et al., 1997).

HCE4, TE3 and TE5 cells [6] = experiment: Bax translocation, cell fractionation and western blot; assay type: cell-based, human; conditions: cytoplasmic and heavy membrane fractions, western blot
Method: as §5
To prepare cytoplasmic fraction and mitochondria-rich heavy membrane fraction, cells were harvested, washed, and then re-suspended in RSB100 (10 mM Tris-HCl, pH 7.4, 2.5 mM MgCl2, 100 mM NaCl) containing 35 μg/mL digitonin (Calbiochem, San Diego, Calif.), and 1× complete protease inhibitor cocktail (Roche Diagnostics). After incubation on ice for 5 minutes, the cells were disrupted by passage through a 25G needle. […] Protein quantity was measured using Bio-Rad protein assay reagent (Bio-Rad, Hercules, Calif.). […]

EPC2 = experiment: mitochondrial transmembrane potential change; assay type: cell-based, human; conditions: data not shown
[7] = system: EPC2 normal esophageal epithelial cells; conditions: EPC2 cells
Method: Normal human primary epithelial cells (EPC2, provided by Dr. Anil Rustgi, University of Pennsylvania) and primary human foreskin keratinocytes (HFK, provided by Dr. John C. Ansel, Emory University), were grown in Keratinocyte-SFM medium (Gibco BRL, Rockville, Md.) containing bovine pituitary extract (40 μg/mL) and epidermal growth factor (1 ng/mL). The primary epithelial cells were used at passage 4 or 5.
The N-terminal histidine (His) tagged recombinant human TRAIL (rhTRAIL, Thr-95 to Gly-281) was obtained from R&D Systems (Minneapolis, Minn.). A mouse monoclonal anti-6× His antibody (R&D Systems) was used for cross-linking the rhTRAIL. […] Cells were treated with TRAIL (50 ng/mL final concentration) and 1 μg/mL of anti-6× His (N-terrninal histidine antibody) for 4 hours or for 16 hours. The caspase inhibitor was used at a final concentration of 20 μM, and was added 2 hours prior to the addition of TRAIL. […] In the case of adriamycin, cells were pre-treated with adriamycin (0.5 μM final concentration) for 16 hours before the addition of TRAIL.
as §6

TE5 cells = experiment: suppression of endogenous Bcl-xL by anti-sense morpholino, western blot and active-caspase 3 assay; assay type: cell-based, human
Method: Anti-sense Bcl-xL morpholino oligonucleotides (5′-[…]-3′) (SEQID NO:2) for suppressing expression of endogenous Bcl-xL in vivo, and fluorescein-labeled standard control oligonucleotides were purchased from Gene Tools, LLC (Corvallis, Oreg.). The scrape delivery method was used to deliver the oligonucleotides to the cells. Briefly, cells (1×10^6/well) were seeded into a 6-well culture plate, and after 16 hours of incubation, the medium was changed with 1 mL of fresh medium containing 20 μM morpholino oligonucleotides (chemically modified antisense oligonucleotides). Then, the cells were scraped out of the plates using a cell scraper (SARSTEDT, Newton, N.C.). After gently pipetting up and down twice, the cells were transferred to a new culture plate. After 48 hours of incubation, the cells were treated under the indicated conditions described in the corresponding figures for the example in which the cells were used. […] The effect is not seen in normal cells.
To confirm the effect of Bcl-xL on the synergistic cell killing, we introduced anti-sense Bcl-xL morpholino oligonucleotides (AS Bcl-xL) were introduced into TE5 cells. This was to determine the effect of suppression of the endogenous Bcl-xL in the TE5 cells. […]

HFK cells = experiment: active-caspase 3 assay on foreskin keratinocytes; assay type: cell-based, human; conditions: increasing concentrations of TRAIL, 4 hours
From the text: Experiments were done in duplicate (mean value±SD).

## z-IETD-FMK
[1]
  protection from the killing effect of TRAIL: protect all cells, including cancer cells, from the killing effect of TRAIL

## C[C@@H]1C[C@@H]([C@H](O)CC2CC(=O)NC(=O)C2)C(=O)[C@@H](C)C1 [CHX, cycloheximide]
[2]; all cancer cell lines, CHX 10 μg/mL for 6 hours before TRAIL
  sensitization to TRAIL by CHX pre-treatment: became sensitized to TRAIL
HCE4 cells
  amount of caspase 8 in the DISC after CHX pre-treatment: slight decrease
TE9 cells
  amount of caspase 8 recruited into DISC after CHX pre-treatment: no increase
[3]
  onset of activation of caspase 8, Bid, caspase 9 and cleavage of PARP after TRAIL treatment: approximately 1 hour

## COc1cccc2c1C(=O)c1c(O)c3c(c(O)c1C2=O)C[C@@](O)(C(=O)CO)C[C@@H]3O[C@H]1C[C@H](N)[C@H](O)[C@H](C)O1 [adriamycin, doxorubicin]
[4]
  cell killing by combination of adriamycin and TRAIL: the effect was synergistic
HCE4, TE3 and TE5 cells [5]
  drop of Δψm after adriamycin treatment: a drop of Δψm was observed only in the HCE4 cells
HCE4, TE3 and TE5 cells [6]
  Bax translocation from the cytosol to the mitochondria after adriamycin treatment: only in the HCE4 cells
EPC2
  drop of Δψm after adriamycin: did not induce drop of Δψm
[7]; no inhibitor
  cell killing by combination of TRAIL and adriamycin: synergistically killed

## AS Bcl-xL: Anti-sense Bcl-xL morpholino oligonucleotide 5'-CGGTTGCTCTGAGACATTTTTATA-3' (SEQID NO:2), from Gene Tools (all phosphorodiamidate morpholino (PMO))
TE5 cells; 20 μM morpholino oligonucleotide, scrape delivery, western blot
  expression of endogenous Bcl-xL: suppression of endogenous Bcl-xL was observed
TE5 cells; even in the presence of z-LEHD-FMK
  cell death by adriamycin plus TRAIL when Bcl-xL is suppressed: underwent synergistic apoptotic cell death

## TRAIL: N-terminal histidine tagged recombinant human TRAIL (Thr-95 to Gly-281) from R&D Systems, cross-linked with anti-6x His antibody
[2]; TE2, TE9 and TE12 cell lines, TRAIL cross-linked with anti-6x His antibody, 16 hours
  TRAIL sensitivity (more than 30% of the cells active-caspase 3 positive): sensitive to TRAIL
HFK cells
  TRAIL cytotoxicity (active-caspase 3): not affected
[7]; TRAIL 5, 10, 25 or 50 ng/mL, 4 hours
  TRAIL cytotoxicity (active-caspase 3): showed cytotoxicity in a dose dependent manner

From patent US20020169123A1, “Regulating apoptosis in TRAIL-resistant cancer cells, while protecting normal, non-cancerous cells” (THE TRUSTEES OF THE UNIVERSITY OF PENNSYLVANIA, priority 2001, published 2002)
